Data taken from patent US12286442B2, “Methods and materials for increasing transcription factor eb polypeptide levels” (University of Pittsburgh—Of the Commonwealth System of …, priority 2019, dated 2025).

How the values were obtained:
TFEB = test: High content screen measuring TFEB nuclear accumulation (TFEB nuclear/cytosol ratio) in BEAS-2B cells stably expressing TFEB-EGFP; type: cell-based, human; conditions: 18 hours incubation
Procedure, shortened: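 Readout: lowest compound concentration giving a 25% rise in nuclear/cytosol TFEB-GFP ratio, from DAPI-masked nuclear and mask-expanded cytosolic signals. Cells (BEAS-2B, TFEB-EGFP stable, ~2300–2500/well) rested 8 hours, then treated 18 hours with compound serial dilutions in 2% FBS medium before PFA fixation and DAPI staining.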

BEAS-2B cells = test: Toxicity: compound concentration needed to induce greater than 50 percent of cell loss; type: cell-based, human; conditions: 18 hours incubation
Procedure, shortened: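 Reported value is the concentration giving greater than 50 percent cell loss, grouped into bins (≥25 μM; between 1 and 25 μM; ≤1 μM as "+++"). Measured by high-content imaging of DAPI-stained BEAS-2B TFEB-EGFP cells fixed after 18 h compound exposure.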

Cc1cccc2c(Nc3ccc4nc(C(C)C)sc4c3)nc(-c3ccncc3)nc12 [Compound 155]
efficacy (minimal compound concentration needed to increase TFEB nuclear/cytosol ratio by 25%) (TFEB): +++ (“+++” equals ≤1 μM)
toxicity (compound concentration needed to induce greater than 50 percent of cell loss) (BEAS-2B cells): + (cell loss of greater than 50 percent at a concentration that equals or is greater than 25 μM was represented as)

Fc1cc(Nc2nc(-c3ccncc3)nc3ccccc23)cc2cc[nH]c12 [Compound 71]
efficacy (minimal compound concentration needed to increase TFEB nuclear/cytosol ratio by 25%) (TFEB): +++ (“+++” equals ≤1 μM)
toxicity (compound concentration needed to induce greater than 50 percent of cell loss) (BEAS-2B cells): + (cell loss of greater than 50 percent at a concentration that equals or is greater than 25 μM was represented as)

OC1CCN(c2nc(-c3ccncc3)nc3ccccc23)CC1 [Compound 177]
efficacy (minimal compound concentration needed to increase TFEB nuclear/cytosol ratio by 25%) (TFEB): + (“+” equals >25 μM)
toxicity (compound concentration needed to induce greater than 50 percent of cell loss) (BEAS-2B cells): + (cell loss of greater than 50 percent at a concentration that equals or is greater than 25 μM was represented as)

c1ccc2c(Nc3ccc4cnccc4c3)nc(-c3cncs3)nc2c1 [Compound 388]
efficacy (minimal compound concentration needed to increase TFEB nuclear/cytosol ratio by 25%) (TFEB): + (“+” equals >25 μM)
toxicity (compound concentration needed to induce greater than 50 percent of cell loss) (BEAS-2B cells): + (cell loss of greater than 50 percent at a concentration that equals or is greater than 25 μM was represented as)

COc1ccc2c(Nc3cc(F)c4[nH]ccc4c3)nc(-c3ccncc3)nc2c1 [Compound 370]
efficacy (minimal compound concentration needed to increase TFEB nuclear/cytosol ratio by 25%) (TFEB): +++ (“+++” equals ≤1 μM)
toxicity (compound concentration needed to induce greater than 50 percent of cell loss) (BEAS-2B cells): + (cell loss of greater than 50 percent at a concentration that equals or is greater than 25 μM was represented as)

Cc1c(Nc2nc(-c3ccncc3)nc3ccccc23)ccc2[nH]ccc12 [Compound 61]
efficacy (minimal compound concentration needed to increase TFEB nuclear/cytosol ratio by 25%) (TFEB): +++ (“+++” equals ≤1 μM)
toxicity (compound concentration needed to induce greater than 50 percent of cell loss) (BEAS-2B cells): ++ (cell loss of greater than 50 percent at a concentration less than 25 μM and greater than 1 μM was represented as)

c1ccc2c(Nc3ccc4[nH]nnc4c3)nc(-c3cncs3)nc2c1 [Compound 387]
efficacy (minimal compound concentration needed to increase TFEB nuclear/cytosol ratio by 25%) (TFEB): + (“+” equals >25 μM)
toxicity (compound concentration needed to induce greater than 50 percent of cell loss) (BEAS-2B cells): + (cell loss of greater than 50 percent at a concentration that equals or is greater than 25 μM was represented as)

Cc1nc2ccc(Nc3nc(-c4ccncc4)nc4ncccc34)cc2s1 [Compound 128]
efficacy (minimal compound concentration needed to increase TFEB nuclear/cytosol ratio by 25%) (TFEB): +++ (“+++” equals ≤1 μM)
toxicity (compound concentration needed to induce greater than 50 percent of cell loss) (BEAS-2B cells): + (cell loss of greater than 50 percent at a concentration that equals or is greater than 25 μM was represented as)

c1cc(-c2cc3cnccc3c(Nc3ccc4[nH]c(C5CC5)cc4c3)n2)ccn1 [Compound 399]
efficacy (minimal compound concentration needed to increase TFEB nuclear/cytosol ratio by 25%) (TFEB): +++ (“+++” equals ≤1 μM)
toxicity (compound concentration needed to induce greater than 50 percent of cell loss) (BEAS-2B cells): + (cell loss of greater than 50 percent at a concentration that equals or is greater than 25 μM was represented as)

O=C(NCCc1ccccc1)c1ccc2c(=O)n(-c3ccccc3)c(=O)[nH]c2c1 [Compound 238]
efficacy (minimal compound concentration needed to increase TFEB nuclear/cytosol ratio by 25%) (TFEB): + (“+” equals >25 μM)
toxicity (compound concentration needed to induce greater than 50 percent of cell loss) (BEAS-2B cells): + (cell loss of greater than 50 percent at a concentration that equals or is greater than 25 μM was represented as)

CCc1nc2ccc(Nc3nc(-c4ccncc4)nc4c(OC)cccc34)cc2s1 [Compound 362]
efficacy (minimal compound concentration needed to increase TFEB nuclear/cytosol ratio by 25%) (TFEB): + (“+” equals >25 μM)
toxicity (compound concentration needed to induce greater than 50 percent of cell loss) (BEAS-2B cells): + (cell loss of greater than 50 percent at a concentration that equals or is greater than 25 μM was represented as)

FC(F)(F)c1cccc(Nc2nc(-c3ccncc3)nc3ccccc23)c1 [Compound 189]
efficacy (minimal compound concentration needed to increase TFEB nuclear/cytosol ratio by 25%) (TFEB): ++ (“++” equals between ≤25 μM and >1 μM)
toxicity (compound concentration needed to induce greater than 50 percent of cell loss) (BEAS-2B cells): + (cell loss of greater than 50 percent at a concentration that equals or is greater than 25 μM was represented as)

Cn1ccc2cc(Nc3nc(-c4ccncc4)nc4ccccc34)ccc21 [Compound 26]
efficacy (minimal compound concentration needed to increase TFEB nuclear/cytosol ratio by 25%) (TFEB): +++ (“+++” equals ≤1 μM)
toxicity (compound concentration needed to induce greater than 50 percent of cell loss) (BEAS-2B cells): +++ (cell loss of greater than 50 percent at a concentration that equals or is less than 1 μM was represented as “+++.”)

CCc1nc2ccc(Nc3nc(-c4ccncc4)nc4ccncc34)cc2s1 [Compound 119]
efficacy (minimal compound concentration needed to increase TFEB nuclear/cytosol ratio by 25%) (TFEB): + (“+” equals >25 μM)
toxicity (compound concentration needed to induce greater than 50 percent of cell loss) (BEAS-2B cells): + (cell loss of greater than 50 percent at a concentration that equals or is greater than 25 μM was represented as)

COc1cccc2c(Nc3ccc4nc(C(C)C)sc4c3)nc(-c3ccncc3)nc12 [Compound 153]
efficacy (minimal compound concentration needed to increase TFEB nuclear/cytosol ratio by 25%) (TFEB): ++ (“++” equals between ≤25 μM and >1 μM)
toxicity (compound concentration needed to induce greater than 50 percent of cell loss) (BEAS-2B cells): + (cell loss of greater than 50 percent at a concentration that equals or is greater than 25 μM was represented as)

Cc1cccc2c(Nc3ccc4cnsc4c3)nc(-c3ccncc3)nc12 [Compound 380]
efficacy (minimal compound concentration needed to increase TFEB nuclear/cytosol ratio by 25%) (TFEB): ++ (“++” equals between ≤25 μM and >1 μM)
toxicity (compound concentration needed to induce greater than 50 percent of cell loss) (BEAS-2B cells): + (cell loss of greater than 50 percent at a concentration that equals or is greater than 25 μM was represented as)

CCCCc1nc2ccc(Nc3nc(-c4ccncc4)nc4ncccc34)cc2o1 [Compound 365]
efficacy (minimal compound concentration needed to increase TFEB nuclear/cytosol ratio by 25%) (TFEB): +++ (“+++” equals ≤1 μM)
toxicity (compound concentration needed to induce greater than 50 percent of cell loss) (BEAS-2B cells): + (cell loss of greater than 50 percent at a concentration that equals or is greater than 25 μM was represented as)

c1cc(-c2nc(Nc3ccc4cn[nH]c4c3)c3cnccc3n2)ccn1 [Compound 125]
efficacy (minimal compound concentration needed to increase TFEB nuclear/cytosol ratio by 25%) (TFEB): ++ (“++” equals between ≤25 μM and >1 μM)
toxicity (compound concentration needed to induce greater than 50 percent of cell loss) (BEAS-2B cells): + (cell loss of greater than 50 percent at a concentration that equals or is greater than 25 μM was represented as)

Fc1cccc2c(Nc3ccc4cnsc4c3)nc(-c3ccncc3)nc12 [Compound 382]
efficacy (minimal compound concentration needed to increase TFEB nuclear/cytosol ratio by 25%) (TFEB): + (“+” equals >25 μM)
toxicity (compound concentration needed to induce greater than 50 percent of cell loss) (BEAS-2B cells): + (cell loss of greater than 50 percent at a concentration that equals or is greater than 25 μM was represented as)

CCc1nc2ccc(Nc3nc(-c4ccncc4)nc4cccc(OC)c34)cc2s1 [Compound 361]
efficacy (minimal compound concentration needed to increase TFEB nuclear/cytosol ratio by 25%) (TFEB): ++ (“++” equals between ≤25 μM and >1 μM)
toxicity (compound concentration needed to induce greater than 50 percent of cell loss) (BEAS-2B cells): + (cell loss of greater than 50 percent at a concentration that equals or is greater than 25 μM was represented as)

CCCCNc1nc(-c2ccncc2)nc2ccccc12 [Compound 164]
efficacy (minimal compound concentration needed to increase TFEB nuclear/cytosol ratio by 25%) (TFEB): + (“+” equals >25 μM)
toxicity (compound concentration needed to induce greater than 50 percent of cell loss) (BEAS-2B cells): + (cell loss of greater than 50 percent at a concentration that equals or is greater than 25 μM was represented as)

O=c1c2ccccc2n(CCN2CCOCC2)c(=O)n1-c1ccccc1 [Compound 229]
efficacy (minimal compound concentration needed to increase TFEB nuclear/cytosol ratio by 25%) (TFEB): + (“+” equals >25 μM)
toxicity (compound concentration needed to induce greater than 50 percent of cell loss) (BEAS-2B cells): + (cell loss of greater than 50 percent at a concentration that equals or is greater than 25 μM was represented as)

c1cnc2nc(-c3ccncc3)nc(Nc3ccc4cnsc4c3)c2c1 [Compound 136]
efficacy (minimal compound concentration needed to increase TFEB nuclear/cytosol ratio by 25%) (TFEB): +++ (“+++” equals ≤1 μM)
toxicity (compound concentration needed to induce greater than 50 percent of cell loss) (BEAS-2B cells): + (cell loss of greater than 50 percent at a concentration that equals or is greater than 25 μM was represented as)

COc1cccc2nc(-c3ccncc3)nc(Nc3ccc4nc(C(C)C)sc4c3)c12 [Compound 152]
efficacy (minimal compound concentration needed to increase TFEB nuclear/cytosol ratio by 25%) (TFEB): ++ (“++” equals between ≤25 μM and >1 μM)
toxicity (compound concentration needed to induce greater than 50 percent of cell loss) (BEAS-2B cells): + (cell loss of greater than 50 percent at a concentration that equals or is greater than 25 μM was represented as)

COc1ccc(-n2c(=O)c3ccccc3n(Cc3ccccc3F)c2=O)cc1 [Compound 235]
efficacy (minimal compound concentration needed to increase TFEB nuclear/cytosol ratio by 25%) (TFEB): ++ (“++” equals between ≤25 μM and >1 μM)
toxicity (compound concentration needed to induce greater than 50 percent of cell loss) (BEAS-2B cells): + (cell loss of greater than 50 percent at a concentration that equals or is greater than 25 μM was represented as)

c1ccc(-c2cc3ncccc3c(Nc3ccc4nc(C5CC5)sc4c3)n2)nc1 [Compound 248]
efficacy (minimal compound concentration needed to increase TFEB nuclear/cytosol ratio by 25%) (TFEB): ++ (“++” equals between ≤25 μM and >1 μM)
toxicity (compound concentration needed to induce greater than 50 percent of cell loss) (BEAS-2B cells): + (cell loss of greater than 50 percent at a concentration that equals or is greater than 25 μM was represented as)

Fc1cc(Nc2nc(-c3ccncc3)nc3ncccc23)cc2cc[nH]c12 [Compound 157]
efficacy (minimal compound concentration needed to increase TFEB nuclear/cytosol ratio by 25%) (TFEB): +++ (“+++” equals ≤1 μM)
toxicity (compound concentration needed to induce greater than 50 percent of cell loss) (BEAS-2B cells): ++ (cell loss of greater than 50 percent at a concentration less than 25 μM and greater than 1 μM was represented as)

NC(=O)c1cccc(Nc2nc(-c3ccncc3)nc3ccccc23)c1 [Compound 3]
efficacy (minimal compound concentration needed to increase TFEB nuclear/cytosol ratio by 25%) (TFEB): +++ (“+++” equals ≤1 μM)
toxicity (compound concentration needed to induce greater than 50 percent of cell loss) (BEAS-2B cells): + (cell loss of greater than 50 percent at a concentration that equals or is greater than 25 μM was represented as)

N#CCNc1nc(-c2ccncc2)nc2ccccc12 [Compound 169]
efficacy (minimal compound concentration needed to increase TFEB nuclear/cytosol ratio by 25%) (TFEB): + (“+” equals >25 μM)
toxicity (compound concentration needed to induce greater than 50 percent of cell loss) (BEAS-2B cells): + (cell loss of greater than 50 percent at a concentration that equals or is greater than 25 μM was represented as)
